Each compound was assayed on Myotonic Dystrophy 1 affected patient fibroblasts (Coriel GM04602; 1600 CTG repeats) (assay: DM1 foci reduction assay (EC50 assay; CAG10-Cy3 FISH, foci per nucleus)). Settings: Homo sapiens, Fibroblast; DM1 patient fibroblasts, 48 h treatment, foci per nucleus; read-out: DM1 EC50, 48 h.
Type: cell-based
Procedure: DM1 Foci Reduction Assay Methods
Myotonic Dystrophy 1 affected patient fibroblasts (Coriel GM04602; 1600 CTG repeats) and wild type fibroblasts (Coriell GM07492; control line) were cultured separately in Gibco DMEM (1×)+4.5 g/L D-Glucose+L-Glutamine+[…] Sodium Pyruvate, supplemented with 10% FBS and 1× Pen/Strep. Cells were maintained in an incubator at 37° C. and 5% CO2 with media refreshed every 48-72 hours.
At 90-95% confluency, both cell lines were harvested using Trypl-E then pelleted at 500×g for 5 minutes and were resuspended in fresh media. DM1 fibroblasts were seeded in Agilent 96 well black plates at a density of 5,000 cells/well in 200 μL media; and 8 wells were reserved for control fibroblasts. Plates were returned to incubator for 24 hours at 37° C. and 5% CO2.
Compounds were diluted from 10 mM stock to 1 mM in DMSO and then diluted once more to 6 μM (2× concentration) in media. Media was removed from all plates and cells were replenished with 100 μL media. Cells were treated in 8-point dose response, 1:3 fold dilution, 3 μM top dose via addition of 100 μL of 6 μM (2× concentration) compound to the 100 μL media with cells. Plates were returned to incubator for 48 hours at 37° C. and 5% CO2.
Following treatment, compounds were removed, and plates were washed with PBS, then cells were fixed in 75 μL 4% PFA solution for 20 minutes at room temperature. Plates were washed twice with PBS and twice with cold 70% ethanol before permeabilization with 250 μL cold 70% ethanol for 24-72 hours at −20° C.
After permeabilization, plates were washed once with a 30% formamide and 2×SSC buffer and rehydrated in that buffer for 15 minutes at room temperature. Cells were incubated overnight at 37° C. in 75 μL of a hybridization solution containing 30% formamide, 2×SSC, 25 mg/mL dextran sulfate, 2.5 mg/mL BSA, 0.2 μg/mL Herring sperm DNA, 2 mM vanadyl-ribonucleoside complex, and 5 nM CAG10-Cy3 probe.
Plates were washed once with 30% formamide in 2×SSC buffer, then twice with the buffer for 30 minutes at 37° C., 300 RPM in an incubating plate shaker. Cells were stained with 75 μL of 2.5 μg/mL DAPI in PBS for 5 minutes at room temperature. Plates were then washed twice with PBS and stored in 250 μL PBS. Plates were sealed with adhesive foil and wiped down with 70% ethanol.
Cells were imaged on a Cytation5 with a 20× objective sampling from 4 areas of each well. Nuclei were captured under DAPI channel and foci under RFP channel. Plates were analyzed on an average foci per nucleus per well basis.

With Cn1cc(NC(=O)c2nc(NC(=O)CCNC(=O)c3cc(NC(=O)c4nccn4C)cn3C)cn2C)cc1C(=O)NCCCC(=O)Nc1cn(C)c(C(=O)NCCC(=O)Nc2cc(C(=O)Nc3cn(C)c(C(=O)NCCOCCOCCOCCN4CCC(C#CC#CC5CCN(C(=O)OC(C)(C)C)CC5)CC4)n3)n(C)c2)n1 [Compound B-199] as the compound, how does the EC50 read?
The EC50 was 100 to 500 nM.

For Cn1cc(NC(=O)c2nc(NC(=O)CCNC(=O)c3cc(NC(=O)c4nccn4C)cn3C)cn2C)cc1C(=O)NCCCC(=O)Nc1cn(C)c(C(=O)NCCC(=O)Nc2cc(C(=O)Nc3cn(C)c(C(=O)NCCC(=O)NCCO)n3)n(C)c2)n1 [Compound B-51], which EC50 is on record?
Its EC50 is 100 to 500 nM.

With Cn1cc(NC(=O)c2nc(NC(=O)CCNC(=O)c3cc(NC(=O)c4nccn4C)cn3C)cn2C)cc1C(=O)NCCCC(=O)Nc1cn(C)c(C(=O)NCCC(=O)Nc2cc(C(=O)Nc3cn(C)c(C(=O)NCCC(=O)N4CCN(C5CCN(c6ccc(N)cc6)CC5)CC4)n3)n(C)c2)n1 [Compound B-156] as the compound, how does the EC50 read?
The EC50 was greater than 1000 nM.

How did the EC50 turn out when CCCCCC(=O)N1CCC(C#CC#CC2CCN(CCCCCNC(=O)CCNC(=O)c3nc(NC(=O)c4cc(NC(=O)CCNC(=O)c5nc(NC(=O)CCCNC(=O)c6cc(NC(=O)c7nc(NC(=O)CCNC(=O)c8cc(NC(=O)c9nccn9C)cn8C)cn7C)cn6C)cn5C)cn4C)cn3C)CC2)CC1 [Compound B-182] was run?
The EC50 was 500 to 1000 nM.

How did the EC50 turn out when CC(=O)N1CCC(NC(=O)CCNC(=O)c2nc(NC(=O)c3cc(NC(=O)CCNC(=O)c4nc(NC(=O)CCCNC(=O)c5cc(NC(=O)c6nc(NC(=O)CCNC(=O)c7cc(NC(=O)c8nccn8C)cn7C)cn6C)cn5C)cn4C)cn3C)cn2C)CC1 [Compound B-141] was run?
Its EC50 is greater than 1000 nM.

With CCN(CC)CCCC[C@H](NC(=O)c1ccncc1)C(=O)NCCOCCOCCOCCOCCOCCNC(=O)CCNC(=O)c1nc(NC(=O)c2cc(NC(=O)CCNC(=O)c3nc(NC(=O)CCCNC(=O)c4cc(NC(=O)c5nc(NC(=O)CCNC(=O)c6cc(NC(=O)c7nccn7C)cn6C)cn5C)cn4C)cn3C)cn2C)cn1C [Compound B-93] as the compound, how does the EC50 read?
Its EC50 is greater than 1000 nM.

For Cn1cc(NC(=O)c2nc(NC(=O)CCNC(=O)c3cc(NC(=O)c4nccn4C)cn3C)cn2C)cc1C(=O)NCCCC(=O)Nc1cn(C)c(C(=O)NCCC(=O)Nc2cc(C(=O)Nc3cn(C)c(C(=O)NCCC(=O)N4CCC(O)(C#CC5CCNCC5)CC4)n3)n(C)c2)n1 [Compound B-196], which EC50 is on record?
Its EC50 is greater than 1000 nM.

CCN(CC)CCCC[C@@H](NC(C)=O)C(=O)NCCNC(=O)CCNC(=O)c1nc(NC(=O)c2cc(NC(=O)CCNC(=O)c3nc(NC(=O)CCCNC(=O)c4cc(NC(=O)c5nc(NC(=O)CCNC(=O)c6cc(NC(=O)c7nccn7C)cn6C)cn5C)cn4C)cn3C)cn2C)cn1C [Compound B-103] was tested. Which EC50 did it give?
Its EC50 is greater than 1000 nM.

Which EC50 does the source give for CCCNC(=O)CCNC(=O)c1nc(NC(=O)c2cc(NC(=O)CCNC(=O)c3nc(NC(=O)CCCCNC(=O)c4cc(NC(=O)c5nc(NC(=O)CCNC(=O)c6cc(NC(=O)c7nccn7C)cn6C)cn5C)cn4C)cn3C)cn2C)cn1C [Compound B-317] here?
Its EC50 is greater than 1000 nM.

Cn1cc(NC(=O)c2nc(NC(=O)CCNC(=O)c3cc(NC(=O)c4nccn4C)cn3C)cn2C)cc1C(=O)NCCCC(=O)Nc1cn(C)c(C(=O)NCCC(=O)Nc2cc(C(=O)Nc3cn(C)c(C(=O)NCCCCCCCNC(=O)c4cccc(C(=O)OC(C)(C)C)c4)n3)n(C)c2)n1 [Compound B-338] was tested. Which EC50 did it give?
The EC50 was greater than 1000 nM.

How did the EC50 turn out when Cn1cc(NC(=O)c2nc(NC(=O)CCNC(=O)c3cc(NC(=O)c4nccn4C)cn3C)cn2C)cc1C(=O)NCCCC(=O)Nc1cn(C)c(C(=O)NCCC(=O)Nc2cc(C(=O)Nc3cn(C)c(C(=O)NCCCN4CCC(C#CC#CC5CCNCC5)CC4)n3)n(C)c2)n1 [Compound B-250] was run?
Its EC50 is 100 to 500 nM.

How did the EC50 turn out when CCCNC(=O)c1cc(NC(=O)c2cc(NC(=O)c3nc(NC(=O)c4nc(NC(=O)[C@@H](N)CCNC(=O)c5nc(NC(=O)CCNC(=O)c6cc(NC(=O)c7nccn7C)cn6C)cn5C)cn4C)cn3C)cn2C)cn1C [Compound B-64] was run?
The EC50 was greater than 1000 nM.

For CCCNC(=O)CCNC(=O)c1nc(NC(=O)c2cc(NC(=O)CCNC(=O)c3nc(NC(=O)CCCNC(=O)c4cc(NC(=O)c5nc(NC(=O)CCNC(=O)c6cc(NC(=O)c7nccn7C)cn6C)cn5C)cn4C)cn3C)cn2CCCCCN(CCOCCOCCOCCOC)CCOCCOCCOCCOC)cn1C [Compound B-157], which EC50 is on record?
Its EC50 is greater than 1000 nM.

How did the EC50 turn out when Cn1cc(NC(=O)c2nc(NC(=O)CCNC(=O)c3cc(NC(=O)c4nccn4C)cn3C)cn2C)cc1C(=O)NCCCC(=O)Nc1cn(C)c(C(=O)NCCC(=O)Nc2cc(C(=O)Nc3cn(C)c(C(=O)NCCCCNc4cccc(C(=O)O)c4)n3)n(C)c2)n1 [Compound B-218] was run?
Its EC50 is 100 to 500 nM.

How did the EC50 turn out when CCCNC(=O)CCNC(=O)c1nc(NC(=O)c2cc(NC(=O)CCNC(=O)c3nc(NC(=O)CCCNC(=O)c4cc(NC(=O)c5nc(NC(=O)CCNC(=O)c6cc(NC(=O)c7nccn7C)cn6C)cn5C)cn4C)cn3C)cn2CCCCCCN=[N+]=[N-])cn1C [Compound B-56] was run?
The EC50 was 100 to 500 nM.

How did the EC50 turn out when Cn1cc(NC(=O)c2nc(NC(=O)CCNC(=O)c3cc(NC(=O)c4nccn4C)cn3C)cn2C)cc1C(=O)NCCCC(=O)Nc1cn(C)c(C(=O)NCCC(=O)Nc2cc(C(=O)Nc3cn(C)c(C(=O)NCCC(=O)N4CCN(CC5CCNCC5)CC4)n3)n(C)c2)n1 [Compound B-114] was run?
The EC50 was 500 to 1000 nM.

For COCCOCCOCCOCCN(CCOCCOCCOCCOC)C(=O)CCCCn1cc(NC(=O)c2nc(NC(=O)CCNC(=O)c3cc(NC(=O)c4nccn4C)cn3C)cn2C)cc1C(=O)NCCCC(=O)Nc1cn(C)c(C(=O)NCCC(=O)Nc2cc(C(=O)Nc3cn(C)c(C(=O)NCCC(=O)N4CCC(C#CC#CC5CCN(C(C)=O)CC5)CC4)n3)n(C)c2)n1 [Compound B-259], which EC50 is on record?
Its EC50 is greater than 1000 nM.

CCCN(CCC)C(=O)c1nc(NC(=O)c2cc(NC(=O)CCNC(=O)c3nc(NC(=O)CCCNC(=O)c4cc(NC(=O)c5nc(NC(=O)CCNC(=O)c6cc(NC(=O)c7nccn7C)cn6C)cn5C)cn4C)cn3C)cn2C)cn1C [Compound B-104] was tested. Which EC50 did it give?
The EC50 was greater than 1000 nM.

Which EC50 does the source give for CN1CCC(CN2CCN(C(=O)CCNC(=O)c3nc(NC(=O)c4cc(NC(=O)CCNC(=O)c5nc(NC(=O)CCCNC(=O)c6cc(NC(=O)c7nc(NC(=O)CCNC(=O)c8cc(NC(=O)c9nccn9C)cn8C)cn7C)cn6C)cn5C)cn4C)cn3C)CC2)CC1 [Compound B-116] here?
The EC50 was greater than 1000 nM.

Which EC50 does the source give for Cn1cc(NC(=O)c2nc(NC(=O)CCNC(=O)c3cc(NC(=O)c4nccn4C)cn3C)cn2C)cc1C(=O)NCCCC(=O)Nc1cn(C)c(C(=O)NCCC(=O)Nc2cc(C(=O)Nc3cn(C)c(C(=O)NCCC(=O)NCCOCCOCCOCCOCCOc4ccc(NC(=O)OCc5ccccc5)cc4)n3)n(C)c2)n1 [Compound B-11] here?
The EC50 was greater than 1000 nM.

How did the EC50 turn out when CN(C)c1ccc(C#CC#CCNC(=O)CCNC(=O)c2nc(NC(=O)c3cc(NC(=O)CCNC(=O)c4nc(NC(=O)CCCNC(=O)c5cc(NC(=O)c6nc(NC(=O)CCNC(=O)c7cc(NC(=O)c8nccn8C)cn7C)cn6C)cn5C)cn4C)cn3C)cn2C)cc1 [Compound B-133] was run?
The EC50 was greater than 1000 nM.

Which EC50 does the source give for COCCOCCOCCOCCOCCOCCOCCOCCN(CCOCCOCCOCCOCCOCCOCCOCCOC)C(=O)CCNC(=O)c1nc(NC(=O)c2cc(NC(=O)CCNC(=O)c3nc(NC(=O)CCCNC(=O)c4cc(NC(=O)c5nc(NC(=O)CCNC(=O)c6cc(NC(C)c7nccn7C)cn6C)cn5C)cn4C)cn3C)cn2C)cn1C (stereo not drawn) [Compound B-80] here?
The EC50 was greater than 1000 nM.

How did the EC50 turn out when Cn1cc(NC(=O)c2nc(NC(=O)CCNC(=O)c3cc(NC(=O)c4nccn4C)cn3C)cn2C)cc1C(=O)NCCCC(=O)Nc1cn(C)c(C(=O)NCCC(=O)Nc2cc(C(=O)Nc3cn(C)c(C(=O)NCCC(=O)N4CC(c5cnc(CN(CCCCO)CCCCO)[nH]5)C4)n3)n(C)c2)n1 [Compound B-70] was run?
The EC50 was 100 to 500 nM.

For COCCOCCOCCOCCN(CCCCCn1cc(NC(=O)c2nc(NC(=O)CCNC(=O)c3cc(NC(=O)c4nccn4C)cn3C)cn2C)cc1C(=O)NCCCC(=O)Nc1cn(C)c(C(=O)NCCC(=O)Nc2cc(C(=O)Nc3cn(C)c(C(=O)NCCC(=O)N4CCC(N5CCNCC5)CC4)n3)n(C)c2)n1)CCOCCOCCOCCOC [Compound B-162], which EC50 is on record?
The EC50 was greater than 1000 nM.

CCN(CC)CCCC[C@H](NC(C)=O)C(=O)NCCOCCOCCOCCNC(=O)CCNC(=O)c1nc(NC(=O)c2cc(NC(=O)CCNC(=O)c3nc(NC(=O)CCCNC(=O)c4cc(NC(=O)c5nc(NC(=O)CCNC(=O)c6cc(NC(=O)c7nccn7C)cn6C)cn5C)cn4C)cn3C)cn2C)cn1C [Compound B-86] was tested. Which EC50 did it give?
Its EC50 is greater than 1000 nM.

Same assay, conditions: Homo sapiens, Fibroblast; DM1 patient fibroblasts, foci per nucleus, 48 h treatment; read-out: DM1 EC50, 48 h

CC(C)n1cc(NC(=O)c2nc(NC(=O)CCNC(=O)c3cc(NC(=O)c4nccn4C)cn3C)cn2C)cc1C(=O)NCC1(CC(=O)Nc2cn(C)c(C(=O)NCCC(=O)Nc3cc(C(=O)Nc4cn(C)c(C(=O)NCCCCN(C)C)n4)n(C)c3)n2)CC1 [Compound B-441] was tested. Which EC50 did it give?
The EC50 was less than 100 nM.

Which EC50 does the source give for CCn1cc(NC(=O)c2nc(NC(=O)CCNC(=O)c3cc(NC(=O)c4nccn4C)cn3C)cn2C)cc1C(=O)NCC1(CC(=O)Nc2cn(C)c(C(=O)NCCC(=O)Nc3cc(C(=O)Nc4cn(C)c(C(=O)NCCCCN(C)C)n4)n(C)c3)n2)CC1 [Compound B-436] here?
Its EC50 is less than 100 nM.
